Laboratory results published in patent US20240174723A1, “STAPLED ANTIMICROBIAL PEPTIDES (STAMPS) AND USES THEREOF” (Lytica Therapeutics, Inc., priority 2021, published 2024).
Converted amounts (≈) assume the structure as drawn. Positions of bridges follow the written chain, without caps; N, C: chain ends. Non-standard residues stand in square brackets, D forms with d. Residues, ends and D or L forms follow the SMILES beside them. S5 = C=CCCC[C@](C)(N)C(=O)O; Dap = NC[C@H](N)C(=O)O

Tests used:
K. pneumoniae = type: cell-based, Klebsiella pneumoniae
Procedure, shortened: (§1)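 MIC by CLSI-adapted microbroth dilution; MHB or MHB II; inoculum 5×10^5 CFU/ml final; 20-24 h, 37 °C; endpoint = no visible growth.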

E. coli = type: cell-based, Escherichia coli
Procedure, shortened: as §1

P. aeruginosa = type: cell-based, Pseudomonas aeruginosa
Procedure, shortened: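 MIC taken as lowest peptide concentration with no visible growth after 20-24 h at 37 °C. Peptide serial dilutions from water stocks met P. aeruginosa inoculum (5×10^5 CFU/ml final) in MHB or MHB II, per a CLSI-adapted microbroth protocol.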

S. aureus = type: cell-based, Staphylococcus aureus
Procedure, shortened: as §1

in vitro [1] = type: cell-based; conditions: human, Inhibitory Concentration at 50% Cytotoxicity (IC50) Human Liver Cells (HepG2)
Procedure, shortened: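 Cytotoxicity read by CellTiter-Glo luminescence after 48 h at 37 °C exposure to serially diluted StAMPs or vehicle. HepG2 cells were grown in EMEM plus 10% FBS and given 4 h to attach before dosing; peptides came from a 5 mg/mL aqueous stock.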

A. baumannii = type: cell-based, Acinetobacter baumannii
Procedure, shortened: as §1

in vitro [2] = type: cell-based; conditions: human
Procedure, shortened: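 LDH release (absorbance at 490 nm) measured in the media of cells treated with serially diluted StAMPs or vehicle at 37 °C: 90 min for renal RPTEC, 48 h for liver HepG2. Cells were seeded overnight beforehand and media refreshed before dosing.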

| Minimum Inhibitory Concentration (MIC) K. pneumoniae (K. pneumoniae) [µg/mL] | Minimum Inhibitory Concentration (MIC) E. coli (E. coli) [µg/mL] | Minimum Inhibitory Concentration (MIC) P. aeruginosa (P. aeruginosa) [µg/mL] | Minimum Inhibitory Concentration (MIC) S. aureus (S. aureus) [µg/mL] | Minimum Inhibitory Concentration (MIC) A. baumannii (A. baumannii) [µg/mL] | IC50 at 90 min (in vitro [2]) [µg/mL] | Compound | IC50 at 48 hours (in vitro [1]) [µg/mL] |
| --- | --- | --- | --- | --- | --- | --- | --- |
| 16 | 4 | 4 | >64 | 32 | > 800 | CC(C)[C@@H]1NC(=O)[C@@](C)(NC(=O)[C@H](C)NC(=O)[C@H](CN)NC(=O)CNC(=O)[C@H](Cc2ccccc2)NC(=O)[C@H](CN)NC(=O)[C@H](CN)NC(=O)[C@H](CN)NC(=O)[C@H](CN)NC(=O)[C@H](CN)NC(=O)[C@]2(C)CCCC=CCCC[C@](C)(NC(=O)CN)C(=O)NCC(=O)N[C@@H](CN)C(=O)N[C@@H](Cc3ccccc3)C(=O)N2)CCCC=CCCC[C@@](C)(C(=O)N[C@@H](C)C(=O)N[C@@H](CN)C(=O)N[C@@H](CN)C(N)=O)NC(=O)[C@H](CCC(=O)O)NC(=O)CNC1=O [compound 25] (H-G[S5]G[Dap]F[S5][Dap][Dap][Dap][Dap][Dap]FG[Dap]A[S5]VGE[S5]A[Dap][Dap]-NH2; staple 2-6, 16-20) | > 200 |
| 16 | 16 | 2 | >64 | 8 | > 200 | CC(C)[C@@H]1NC(=O)[C@@](C)(NC(=O)[C@H](C)NC(=O)[C@H](CN)NC(=O)CNC(=O)[C@H](Cc2ccccc2)NC(=O)[C@H](CN)NC(=O)[C@H](CN)NC(=O)[C@H](CN)NC(=O)[C@H](CN)NC(=O)[C@H](CN)NC(=O)[C@]2(C)CCCC=CCCC[C@](C)(NC(=O)CN)C(=O)NCC(=O)N[C@@H](CN)C(=O)N[C@@H](Cc3ccccc3)C(=O)N2)CCCC=CCCC[C@@](C)(C(=O)N[C@@H](C)C(=O)N[C@@H](CCCCN)C(=O)N[C@@H](CCCCN)C(N)=O)NC(=O)[C@H](CCC(=O)O)NC(=O)CNC1=O [compound 78] (H-G[S5]G[Dap]F[S5][Dap][Dap][Dap][Dap][Dap]FG[Dap]A[S5]VGE[S5]AKK-NH2; staple 2-6, 16-20) | > 200 |
| 4 | 2 | 4 | >64 | 2 | ~200 (≈ 77.3 µM) | CC(C)C[C@@H]1NC(=O)[C@H](C(C)C)NC(=O)[C@@](C)(NC(=O)[C@H](C)NC(=O)[C@H](CCCCN)NC(=O)CNC(=O)[C@H](Cc2ccccc2)NC(=O)[C@H](CCCCN)NC(=O)[C@H](CCCCN)NC(=O)[C@H](CCCCN)NC(=O)[C@H](CO)NC(=O)[C@H](Cc2c[nH]cn2)NC(=O)[C@]2(C)CCCC=CCCC[C@](C)(NC(=O)CN)C(=O)NCC(=O)N[C@@H](CCCCN)C(=O)N[C@@H](Cc3ccccc3)C(=O)N2)CCCC=CCCC[C@@](C)(C(=O)N[C@@H](C)C(=O)N[C@@H](CCCCN)C(=O)N[C@@H](CCCCN)C(N)=O)NC(=O)[C@H](CCC(=O)O)NC1=O [compound 12] (H-G[S5]GKF[S5]HSKKKFGKA[S5]VLE[S5]AKK-NH2; staple 2-6, 16-20) | ~200 (≈ 77.3 µM) |
| 8 | 4 | 6 | 16 | 4 | 32 (≈ 12.1 µM) | CC(C)[C@@H]1NC(=O)[C@@](C)(NC(=O)[C@H](Cc2c[nH]c3ccccc23)NC(=O)[C@H](CCCCN)NC(=O)CNC(=O)[C@H](Cc2ccccc2)NC(=O)[C@H](CCCCN)NC(=O)[C@H](CCCCN)NC(=O)[C@H](CCCCN)NC(=O)[C@H](CO)NC(=O)[C@H](Cc2c[nH]cn2)NC(=O)[C@]2(C)CCCC=CCCC[C@](C)(NC(=O)CN)C(=O)NCC(=O)N[C@@H](CCCCN)C(=O)N[C@@H](Cc3ccccc3)C(=O)N2)CCCC=CCCC[C@@](C)(C(=O)N[C@@H](C)C(=O)N[C@@H](CCCCN)C(=O)N[C@@H](CCCCN)C(N)=O)NC(=O)[C@H](CCC(=O)O)NC(=O)CNC1=O [compound 63] (H-G[S5]GKF[S5]HSKKKFGKW[S5]VGE[S5]AKK-NH2; staple 2-6, 16-20) | 60 (≈ 22.7 µM) |
| 32 | 4 | 4 | >64 | 4 | 366 (≈ 130 µM) | CC(C)[C@@H]1NC(=O)[C@@](C)(NC(=O)[C@H](C)NC(=O)[C@H](CCCCN)NC(=O)CNC(=O)[C@H](Cc2ccccc2)NC(=O)[C@H](CCCCN)NC(=O)[C@H](CCCCN)NC(=O)[C@H](CCCCN)NC(=O)[C@H](CCCCN)NC(=O)[C@H](CCCCN)NC(=O)[C@]2(C)CCCC=CCCC[C@](C)(NC(=O)CN)C(=O)NCC(=O)N[C@@H](CCCCN)C(=O)N[C@@H](Cc3ccccc3)C(=O)N2)CCCC=CCCC[C@@](C)(C(=O)N[C@@H](C)C(=O)N[C@@H](CCCCN)C(=O)N[C@@H](CCCCN)C(=O)NCC(=O)NCC(=O)N[C@@H](CCC(=O)O)C(N)=O)NC(=O)[C@H](CCC(=O)O)NC(=O)CNC1=O [compound 26] (H-G[S5]GKF[S5]KKKKKFGKA[S5]VGE[S5]AKKGGE-NH2; staple 2-6, 16-20) | 354 (≈ 126 µM) |
| 4 | 2 | 4 | >64 | 3 | 202 (≈ 75.8 µM) | CC(C)[C@@H]1NC(=O)[C@@](C)(NC(=O)[C@H](C)NC(=O)[C@H](CCCCN)NC(=O)CNC(=O)[C@H](Cc2ccccc2)NC(=O)[C@H](CCCCN)NC(=O)[C@H](CCCCN)NC(=O)[C@H](CCCCN)NC(=O)[C@H](CCCCN)NC(=O)[C@H](Cc2c[nH]cn2)NC(=O)[C@]2(C)CCCC=CCCC[C@](C)(NC(=O)CN)C(=O)NCC(=O)N[C@@H](CCCCN)C(=O)N[C@@H](Cc3ccccc3)C(=O)N2)CCCC=CCCC[C@@](C)(C(=O)N[C@@H](C)C(=O)N[C@@H](CCCCN)C(=O)N[C@@H](CCCCN)C(N)=O)NC(=O)[C@H](CCC(=O)O)NC(=O)[C@H](Cc2ccccc2)NC1=O [compound 22] (H-G[S5]GKF[S5]HKKKKFGKA[S5]VFE[S5]AKK-NH2; staple 2-6, 16-20) | > 200 |
| 16 | 1 | 16 | 64 | 16 | > 200 | CC(C)[C@@H]1NC(=O)[C@@](C)(NC(=O)[C@H](C)NC(=O)[C@H](CN)NC(=O)CNC(=O)[C@H](Cc2ccccc2)NC(=O)[C@H](CN)NC(=O)[C@H](CN)NC(=O)[C@H](CN)NC(=O)[C@H](CN)NC(=O)[C@H](CN)NC(=O)[C@]2(C)CCCC=CCCC[C@](C)(NC(=O)CN)C(=O)NCC(=O)N[C@@H](CN)C(=O)N[C@@H](Cc3ccccc3)C(=O)N2)CCCC=CCCC[C@@](C)(C(=O)N[C@@H](C)C(=O)N[C@@H](CN)C(=O)N[C@@H](CN)C(=O)NCC(N)=O)NC(=O)[C@H](CCC(=O)O)NC(=O)CNC1=O [compound 76] (H-G[S5]G[Dap]F[S5][Dap][Dap][Dap][Dap][Dap]FG[Dap]A[S5]VGE[S5]A[Dap][Dap]G-NH2; staple 2-6, 16-20) | > 200 |
| 4 | 2 | 4 | >64 | 2 | 214 (≈ 81.6 µM) | CC(C)[C@@H]1NC(=O)[C@@](C)(NC(=O)[C@H](C)NC(=O)[C@H](CCCCN)NC(=O)CNC(=O)[C@H](Cc2ccccc2)NC(=O)[C@H](CCCCN)NC(=O)[C@H](CCCCN)NC(=O)[C@H](CCCCN)NC(=O)[C@H](CO)NC(=O)[C@H](Cc2c[nH]cn2)NC(=O)[C@]2(C)CCCC=CCCC[C@](C)(NC(=O)CN)C(=O)NCC(=O)N[C@@H](CCCCN)C(=O)N[C@@H](Cc3ccccc3)C(=O)N2)CCCC=CCCC[C@@](C)(C(=O)N[C@@H](C)C(=O)N[C@@H](CCCCN)C(=O)N[C@@H](CCCCN)C(N)=O)NC(=O)[C@H](CCC(=O)O)NC(=O)[C@H](Cc2ccccc2)NC1=O [compound 14] (H-G[S5]GKF[S5]HSKKKFGKA[S5]VFE[S5]AKK-NH2; staple 2-6, 16-20) | 222 (≈ 84.7 µM) |
